Measured values from patent US5140044A, “UCN-1028D derivatives” (Kyowa Hakko Kogyo Co., Ltd., priority 1989, dated 1992).
Values after ≈ are worked out from the molar mass of the structure shown. Read-outs that look alike come from different tables or passages of the source.

Assays:
Protein Kinase C = experiment: Protein kinase C inhibitory activity (method of Kikkawa et al.; crude enzyme from rat brain, Histone Type II S phosphorylation); format: biochemical; conditions: crude enzyme partially purified from rat brain; [γ-32P]ATP, 30° C., 3 minutes, pH 7.5
Experimental: Protein kinase C inhibitory activity
The protein kinase C inhibitory activity was measured by the method of Kikkawa, et al. [Journal of Biological Chemistry, 257, 13341 (1982)].
That is, 10 μl of a test solution containing a UCN-1028D derivative was added to 250 μl of a solution containing 2.5 μmoles of magnesium acetate, 50 μg of Histone Type II S (manufactured by Sigma Co., Ltd.), 20 μg of phosphatidyl serine, 0.8 μg of diolein, 25 nmoles of CaCl2, 5 μg of crude enzyme (partially purified from rat brain according to the method of Kikkawa, et al.) and 5 μmoles of Tris-hydrochloride buffer (pH 7.5), followed by incubation at 30° C. for 3 minutes. Then, phosphorylation was initiated by addition of 1.25 nmoles of [γ-^32 P]ATP (5 to 10×10^3 cpm/nmole), followed by incubation at 30° C. for 3 minutes The reaction was stopped by adding 25% trichloroacetic acid (TCA), and the reaction solution was filtered through a cellulose acetate membrane (pore size: 0.45 μm) (manufactured by Toyo Filter Paper Co., Ltd.). After the membrane was washed four times with 5% TCA, radioactivity remaining on the membrane was measured. As a control, the same procedure as above was repeated without addition of the test solution and radioactivity was likewise measured. The concentration of the test solution showing 50% inhibition as compared with the control was expressed as IC50.

BALB 3T3/H-ras = experiment: Anti-tumor activity: growth inhibition of BALB 3T3 cells transformed with H-ras (Giemsa staining); format: cell-based; conditions: Mus musculus, BALB/3T3, 72 h, read-out: IC50 BALB 3T3/H-ras Inhibitory Activity
Experimental: The anti-tumor activity was determined using BALB 3T3 cells transformed with the carcinogenic gene H-ras (hereafter referred to as BALB 3T3/H-ras).
BALB 3T3/H-ras cells were suspended in a medium comprising DME medium (manufactured by Nissui Pharmaceutical Co., Ltd.) and 10% fetal calf serum (hereafter referred to as medium A) to a concentration of 3.0×10^4 /cells ml. The cell suspension thus prepared was put into wells of a 96-well microtiter plate in an amount of 0.1 ml per well. After culturing at 37° C. for 20 hours in a CO2 -incubator, 0.1 ml each of a test solution appropriately diluted with medium A was added to each well. The cells were further cultured at 37° C. for 72 hours in the CO2 -incubator and the culture supernatant was removed. After being washed once with physiological saline, the residue was treated with 0.1 ml of methanol for 10 minutes to fix the cells. Thereafter, the cells were stained with 0.1 ml of Giemsa staining solution [Giemsa staining stock solution (Merck Art 9204; manufactured by Merck Inc.) : physiological saline=1 : 10] for 5 minutes. After the staining solution was removed, the residue was washed once with 0.2 ml of water. The pigment was extracted with 0.2 ml of 0.1 N hydrochloric acid and the absorbance at 620 nm was measured with a microplate reader. By comparing the absorbance of untreated cells with those of the cells treated with the test compound at known concentrations, the concentration of the test compound at which the growth of the cells is inhibited by 50% (IC50) was calculated.

Compound | IC50 Protein Kinase C Inhibitory Activity (Protein Kinase C) | IC50 (BALB 3T3/H-ras) | IC50 (BALB 3T3/H-ras; growth inhibition, 72 hours, 37° C., Giemsa staining, absorbance at 620 nm)
COc1c(C[C@@H](C)OC(=O)c2ccco2)c2c3c(C[C@@H](C)OC(=O)c4ccco4)c(OC)c(=O)c4c(O)cc(OC)c(c5c(OC)cc(O)c(c1=O)c52)c43 [Compound 35, 14,17-di-O-2-furoyl UCN-1028D] | 0.11 µg/mL (≈ 0.149 µM) | 0.12 µg/mL (≈ 0.162 µM) | 
COc1c(C[C@@H](C)OC(=O)[C@@H]2CCCN2)c2c3c(C[C@@H](C)OC(=O)[C@@H]4CCCN4)c(OC)c(=O)c4c(O)cc(OC)c(c5c(OC)cc(O)c(c1=O)c52)c43 [Compound 20, 14,17-di-O-L-prolyl UCN-1028D bistrifluoroacetate] | 0.33 µg/mL (≈ 0.443 µM) | 3.2 µg/mL (≈ 4.3 µM) | 
COc1c(C[C@@H](C)OS(=O)(=O)c2ccc(C)cc2)c2c3c(C[C@@H](C)OS(=O)(=O)c4ccc(C)cc4)c(OC)c(=O)c4c(O)cc(OC)c(c5c(OC)cc(O)c(c1=O)c52)c43 [Compound 40, 14,17-bis-O-p-toluenesulfonyl UCN-1028D] | 0.066 µg/mL (≈ 0.0768 µM) | 0.04 µg/mL (≈ 0.0466 µM) | 
COc1c(C[C@@H](C)OC(=O)Cc2ccccc2)c2c3c(C[C@@H](C)OC(=O)Cc4ccccc4)c(OC)c(=O)c4c(O)cc(OC)c(c5c(OC)cc(O)c(c1=O)c52)c43 [Compound 9, 14,17-bis-O-phenylacetyl UCN-1028D] | 0.054 µg/mL (≈ 0.0686 µM) | 0.11 µg/mL (≈ 0.14 µM) | 
COc1c(C[C@@H](C)OC(=O)Cc2cccc3ccccc23)c2c3c(C[C@@H](C)OC(=O)Cc4cccc5ccccc45)c(OC)c(=O)c4c(O)cc(OC)c(c5c(OC)cc(O)c(c1=O)c52)c43 [Compound 12, 14,17-bis-O-1-naphthylacetyl UCN-1028D] | 0.05 µg/mL (≈ 0.0564 µM) | 1.3 µg/mL (≈ 1.47 µM) | 
COc1c(C[C@@H](C)OC(=O)c2ccc(OC(C)=O)cc2)c2c3c(C[C@@H](C)OC(=O)c4ccc(OC(C)=O)cc4)c(OC)c(=O)c4c(O)cc(OC)c(c5c(OC)cc(O)c(c1=O)c52)c43 [Compound 24, 14,17-bis-O-p-acetoxybenzoyl UCN-1028D] | 0.082 µg/mL (≈ 0.0937 µM) | 0.048 µg/mL (≈ 0.0549 µM) | 
COc1c(C[C@@H](C)OC(=O)[C@@H](N)Cc2ccccc2)c2c3c(C[C@@H](C)OC(=O)[C@@H](N)Cc4ccccc4)c(OC)c(=O)c4c(O)cc(OC)c(c5c(OC)cc(O)c(c1=O)c52)c43 [Compound 17, 14,17-di-O-L-phenylalanyl UCN-1028D bistrifluoroacetate] | 0.088 µg/mL (≈ 0.104 µM) | 0.35 µg/mL (≈ 0.414 µM) | 
COc1c(C[C@@H](C)OS(C)(=O)=O)c2c3c(C[C@@H](C)OS(C)(=O)=O)c(OC)c(=O)c4c(O)cc(OC)c(c5c(OC)cc(O)c(c1=O)c52)c43 [Compound 39, 14,17-bis-O-methanesulfonyl UCN-1028D] | 0.5 µg/mL (≈ 0.707 µM) | 0.35 µg/mL (≈ 0.495 µM) | 
COc1c(C[C@@H](C)OC(=O)Nc2ccccc2)c2c3c(C[C@@H](C)OC(=O)Nc4ccccc4)c(OC)c(=O)c4c(O)cc(OC)c(c5c(OC)cc(O)c(c1=O)c52)c43 [Compound 42, 14,17-bis-O-phenylaminocarbonyl UCN-1028D] | 0.021 µg/mL (≈ 0.0266 µM) | 0.075 µg/mL (≈ 0.0951 µM) | 
CCCCCCCCCC(=O)O[C@H](C)Cc1c(OC)c(=O)c2c(O)cc(OC)c3c4c(OC)cc(O)c5c(=O)c(OC)c(C[C@@H](C)OC(=O)CCCCCCCCC)c(c1c23)c54 [Compound 5, 14,17-di-O-decanoyl UCN-1028D] | 0.068 µg/mL (≈ 0.0792 µM) | 7 µg/mL (≈ 8.15 µM) | 
COc1c(C[C@@H](C)OC(=O)[C@H](N)Cc2ccccc2)c2c3c(C[C@@H](C)OC(=O)[C@H](N)Cc4ccccc4)c(OC)c(=O)c4c(O)cc(OC)c(c5c(OC)cc(O)c(c1=O)c52)c43 [Compound 18, 14,17-di-O-D-phenylalanyl UCN-1028D bistrifluoroacetate] | 0.16 µg/mL (≈ 0.189 µM) | 0.84 µg/mL (≈ 0.994 µM) | 
CCCCCC(=O)O[C@H](C)Cc1c(OC)c(=O)c2c(O)cc(OC)c3c4c(OC)cc(O)c5c(=O)c(OC)c(C[C@@H](C)OC(=O)CCCCC)c(c1c23)c54 [Compound 3, 14,17-di-O-hexanoyl UCN-1028D] | 0.035 µg/mL (≈ 0.0469 µM) | 0.12 µg/mL (≈ 0.161 µM) | 
CCCCCCC(=O)O[C@H](C)Cc1c(OC)c(=O)c2c(O)cc(OC)c3c4c(OC)cc(O)c5c(=O)c(OC)c(C[C@@H](C)OC(=O)CCCCCC)c(c1c23)c54 [Compound 4, 14,17-di-O-heptanoyl UCN-1028D] | 0.03 µg/mL (≈ 0.0387 µM) | 0.52 µg/mL (≈ 0.671 µM) | 
COc1c(C[C@@H](C)OC(C)=O)c2c3c(C[C@@H](C)OC(C)=O)c(OC)c(=O)c4c(O)cc(OC)c(c5c(OC)cc(O)c(c1=O)c52)c43 [Compound 1, 14,17-di-O-acetyl UCN-1028D] | 1.6 µg/mL (≈ 2.52 µM) | 0.048 µg/mL (≈ 0.0756 µM) | 
COc1c(C[C@@H](C)OC(=O)CCCCCN)c2c3c(C[C@@H](C)OC(=O)CCCCCN)c(OC)c(=O)c4c(O)cc(OC)c(c5c(OC)cc(O)c(c1=O)c52)c43 [Compound 21, 14,17-bis-O-6-aminohexanoyl UCN-1028D bis-trifluoroacetate] | 0.08 µg/mL (≈ 0.103 µM) | 2.5 µg/mL (≈ 3.22 µM) | 
COc1c(C[C@@H](C)OC(=O)c2ccccc2)c2c3c(C[C@@H](C)OC(=O)c4ccccc4)c(OC)c(=O)c4c(O)cc(OC)c(c5c(OC)cc(O)c(c1=O)c52)c43 [Compound 44, 14,17-di-O-benzoyl UCN-1028 iso-D] | 0.025 µg/mL (≈ 0.0329 µM) |  | 0.52 µg/mL (≈ 0.685 µM)
COc1c(C[C@@H](C)OC(=O)c2ccc(C)cc2)c2c3c(C[C@@H](C)OC(=O)c4ccc(C)cc4)c(OC)c(=O)c4c(O)cc(OC)c(c5c(OC)cc(O)c(c1=O)c52)c43 [Compound 29, 14,17-bis-O-p-methylbenzoyl UCN-1028D] | 0.06 µg/mL (≈ 0.0763 µM) | 0.022 µg/mL (≈ 0.028 µM) | 
COc1c(C[C@@H](C)OC(=O)[C@@H](N)CC(C)C)c2c3c(C[C@@H](C)OC(=O)[C@@H](N)CC(C)C)c(OC)c(=O)c4c(O)cc(OC)c(c5c(OC)cc(O)c(c1=O)c52)c43 [Compound 14, 14,17-di-O-L-leucyl UCN-1028D bistrifluoroacetate] | 0.21 µg/mL (≈ 0.27 µM) | 0.45 µg/mL (≈ 0.579 µM) | 
COC(=O)O[C@H](C)Cc1c(OC)c(=O)c2c(O)cc(OC)c3c4c(OC)cc(O)c5c(=O)c(OC)c(C[C@@H](C)OC(=O)OC)c(c1c23)c54 [Compound 36, 14,17-bis-O-methoxycarbonyl UCN-1028D] | 0.29 µg/mL (≈ 0.435 µM) | 0.13 µg/mL (≈ 0.195 µM) | 
COc1c(C[C@@H](C)OC(=O)c2ccc([N+](=O)[O-])cc2)c2c3c(C[C@@H](C)OC(=O)c4ccc([N+](=O)[O-])cc4)c(OC)c(=O)c4c(O)cc(OC)c(c5c(OC)cc(O)c(c1=O)c52)c43 [Compound 30, 14,17-bis-O-p-nitrobenzoyl UCN-1028D] | 0.11 µg/mL (≈ 0.13 µM) | 0.07 µg/mL (≈ 0.0825 µM) | 
CC[C@H](C)[C@H](N)C(=O)O[C@H](C)Cc1c(OC)c(=O)c2c(O)cc(OC)c3c4c(OC)cc(O)c5c(=O)c(OC)c(C[C@@H](C)OC(=O)[C@@H](N)[C@@H](C)CC)c(c1c23)c54 [Compound 15, 14,17-di-O-L-isoleucyl UCN-1028D bistrifluoroacetate] | 0.15 µg/mL (≈ 0.193 µM) | 0.28 µg/mL (≈ 0.36 µM) | 
CCCC(=O)O[C@H](C)Cc1c(OC)c(=O)c2c(O)cc(OC)c3c4c(OC)cc(O)c5c(=O)c(OC)c(C[C@@H](C)OC(=O)CCC)c(c1c23)c54 [Compound 2, 14,17-di-O-butyryl UCN-1028D] | 0.14 µg/mL (≈ 0.203 µM) | 0.023 µg/mL (≈ 0.0333 µM) | 
COC(=O)c1ccc(C(=O)O[C@H](C)Cc2c(OC)c(=O)c3c(O)cc(OC)c4c5c(OC)cc(O)c6c(=O)c(OC)c(C[C@@H](C)OC(=O)c7ccc(C(=O)OC)cc7)c(c2c34)c65)cc1 [Compound 28, 14,17-bis-O-p-methoxycarbonylbenzoyl UCN-1028D] | 0.084 µg/mL (≈ 0.096 µM) | 0.068 µg/mL (≈ 0.0777 µM) | 
COc1ccc(C(=O)O[C@H](C)Cc2c(OC)c(=O)c3c(O)cc(OC)c4c5c(OC)cc(O)c6c(=O)c(OC)c(C[C@@H](C)OC(=O)c7ccc(OC)cc7)c(c2c34)c65)cc1 [Compound 27, 14,17-bis-O-p-methoxybenzoyl UCN-1028D] | 0.05 µg/mL (≈ 0.0611 µM) | 0.026 µg/mL (≈ 0.0318 µM) | 
